From patent US5610171A, “Inhibition of metastasis in patients having cancer with pyridyloxazole-2-ones” (Merrell Pharmaceuticals Inc., priority 1995, dated 1997)
“Also recorded” adds a separate entry of the source. Where two headings read alike, the source gives them in different places.

How the values were obtained:
[1] = tested on: B16F1 cells / human umbilical vein endothelial cells (HUVEC); test: Adhesion of B16F1 melanoma cells to endothelial cells (HUVEC); type: cell-based, murine B16F1 cells; human HUVEC; details: for Adherent B16F1 Cells, Mean +/- SE / activity at 50 µM: 50 μM, 24 hours treatment; for activity at 50 µM: Mus musculus, read-out: B16F1 cells adhered expressed as percent of control
Protocol: Adhesion of Tumor Cells to Endothelial Cells
Round 15 mm Thermanox tissue culture cover slips from Lux were placed in Corning 12-well, 22 mm diameter tissue culture clusters. HUVEC (2×10^6) were added to each well and grown to confluency. Sub-confluent B16F1 cells were labeled with 1 μCi/ml [^3 H]-thymidine (New England Nuclear, 78.5 Ci/mmol) for 24 hours at 37° C.
In preparation for the adhesion assay, the tissue culture wells containing either HUVEC or no cells were blocked with MEM containing 20 mM HEPES and 1% BSA for 1 hour at 37° C. B16F1 cells were removed from the flasks as described above for adhesion to basement membrane proteins and diluted to a density of 2×10^5 viable cells/ml in MEM (viability determined by trypan blue exclusion).
Blocking solution was aspirated from the wells and 1 ml of cells were added per well and incubated at 37° C. Nonadherent cells were washed from coverslips as described in Wright, P. S., Cross-Doersen, D., McCann, P. P. and Bitonti, A. J., Plasmodium falciparum: a rapid assay for cytoadherence of [^3 H]-hypoxanthine-labeled infected erythrocytes to human melanoma cells, Exp. Parasitol., 71: 346-349, 1990. Coverslips were retrieved from the well with forceps and dipped 10 times into a beaker of 100 ml MEM. Coverslips were placed into scintillation vials and counted in 10 ml Beckman Ready Protein.
B16F1 cells were treated with 4-propyl-5(4-pyridinyl)-
(3H)-oxazolone for 24 hours at 37° C. Cells were then
harvested and added to wells containing confluent HUVEC
cells and incubated for the time indicated at 37° C. Details
are given in Materials and Methods.

collagen IV = test: Adhesion of B16F1 cells to collagen IV; type: cell-based; details: 24 hours
Protocol: Adhesion of B16F1 Cells to Basement Membrane Proteins
Adhesion proteins (2 μg/well) were coated onto Immulon I Removawells from Dynatech and incubated for 1 hour at 37° C. The wells were then blocked for 1 hour with 400 μl PBS, pH 7.2 containing 1% bovine serum albumin (BSA) at 37° C. Prior to addition of the cell suspension, the blocking solution was aspirated.
Sub-confluent cells were washed twice with HBSS and removed form flasks by incubation for 10 minutes at 37° C. with PBS (pH 7.2), 2 mM EDTA, and 1% BSA. The cells were washed twice with MEM containing 20 mM HEPES and 0.1% BSA and resuspended in the same medium to give a cell density of […].
Cells were added to wells in 50 μl (5×10^4 cells) and incubated at 37° C. The wells were aspirated and washed three times with 400 μl PBS (pH 7.2) containing 0.1% BSA. Wells were detached and counted in 5 ml Beckman Ready Protein. Blanks were not coated with protein but were blocked with BSA as described above.

CCCc1[nH]c(=O)oc1-c1ccncc1 [Compound 1, 4-propyl-5(4-pyridinyl)-2(3H)-oxazolone]
adherence to HUVEC [1]: decreased adhesion; also recorded: less adherent | Adherent B16F1 Cells, Mean +/- SE ([1]; 5 min adhesion): 4,513 cells | Adherent B16F1 Cells, Mean +/- SE ([1]; 10 min adhesion): 7,828 cells | Adherent B16F1 Cells, Mean +/- SE ([1]; 20 min adhesion): 48,750 cells | Adherent B16F1 Cells, Mean +/- SE ([1]; 30 min adhesion): 92,084 cells | Adherent B16F1 Cells, Mean +/- SE ([1]; 60 min adhesion): 136,950 cells | activity at 50 µM ([1]; B16-F1, 5 min, 5 min adhesion): 126% | activity at 50 µM ([1]; B16-F1, 10 min, 10 min adhesion): 39% | activity at 50 µM ([1]; B16-F1, 20 min, 20 min adhesion): 60% | activity at 50 µM ([1]; B16-F1, 0.5 h, 30 min adhesion): 71% | activity at 50 µM ([1]; B16-F1, 1 h, 60 min adhesion): 110% | adhesion to collagen IV (collagen IV): most sensitive to inhibition
